Data from patent publication US12618096B2, “Rapid screen for antibiotic resistance and treatment regimen” (priority 2020, dated 2026).

Tests used:
Type in all cases: cell-based
[1] = tested on: Klebsiella pneumoniae (NCTC 13368); assay: Bacterial impedance flow cytometry of antimicrobial peptides; conditions: at the concentrations tested
Description: The method for determining the efficacy of different membrane penetrating peptide antimicrobials is essentially the same as for Example 1. Briefly, colonies are picked from plate carrying bacteria from a clinical sample (e.g. a urine sample from suspected UTI) into Tryptone soy broth (TSB) and incubated for 30 minutes prior to addition of the membrane penetrating peptide antimicrobial preparation. The incubation is typically carried out at 37° C. with shaking. […] The concentrations are selected to span the minimum inhibitory concentration of the two strains, as might be used clinically for an antimicrobial breakpoint determination. Optionally, the bacterial impedance flow cytometry method may be used to generate a measurement of the minimum inhibitory concentration or a fixed concentration is used on the basis of a resistant/susceptible breakpoint. The sample is incubated at 37° C. for 30 or 60 minutes in a static incubator at 37° C. The population at each timepoint is analysed using bacterial impedance flow cytometry and the data collected and analysed to measure both the viable cell number and any migration of the cell population out of a contour enclosing a percentage of a control or untreated population of the same species.
The bacterial impedance of the population was measured. […]

[2] = tested on: A. baumannii NCTC 10303; assay: Resistance profile of bacterial strain
[3] = tested on: A. baumannii ATCC 17978; assay: Resistance profile of bacterial strain
[4] = tested on: P. aeruginosa PAO1; assay: Resistance profile of bacterial strain
[5] = tested on: A. baumannii NCTC 13302; assay: Resistance profile of bacterial strain
[6] = tested on: A. baumannii ATCC 17978 ColR; assay: Resistance profile of bacterial strain

| Compound | Susceptibility of NCTC 13368 relative to NCTC 12923 [1] | Resistance profile [2] | Resistance profile [3] | Resistance profile [4] | Resistance profile [5] | Resistance profile [6] |
| --- | --- | --- | --- | --- | --- | --- |
| CC[C@H](C)[C@H](NC(=O)CN)C(=O)NCC(=O)N[C@@H](C)C(=O)N[C@H](C(=O)N[C@@H](CC(C)C)C(=O)N[C@@H](CCCCN)C(=O)N[C@H](C(=O)N[C@@H](CC(C)C)C(=O)N[C@H](C(=O)N[C@H](C(=O)NCC(=O)N[C@@H](CC(C)C)C(=O)N1CCC[C@H]1C(=O)N[C@@H](C)C(=O)N[C@@H](CC(C)C)C(=O)N[C@H](C(=O)N[C@@H](CO)C(=O)N[C@@H](Cc1c[nH]c2ccccc12)C(=O)N[C@H](C(=O)N[C@@H](CCCCN)C(=O)N[C@@H](CCCNC(=N)N)C(=O)N[C@@H](CCCCN)C(=O)N[C@@H](CCCNC(=N)N)C(=O)N[C@@H](CCC(N)=O)C(=O)N[C@@H](CCC(N)=O)C(N)=O)[C@@H](C)CC)[C@@H](C)CC)[C@@H](C)O)[C@@H](C)O)C(C)C)C(C)C [melittin] | lower susceptibility |  |  |  |  |  |
| O=C(O)c1cn(C2CC2)c2cc(N3CCNCC3)c(F)cc2c1=O [Ciprofloxacin] |  | Resistant | Resistant | Resistant | Resistant | Colistin-Resistant Ciprofloxacin-Resistant; |
| Gentamicin |  | resistant | Resistant | Resistant | Gentamicin- Resistant; Imipenem -Resistant; | Resistant |
| Colistin |  | Sensitive | Sensitive | Sensitive | Sensitive | Colistin-Resistant Ciprofloxacin-Resistant; |
| Piperacillin/tazobactam |  | Piperacillin/tazobactam -sensitive | Piperacillin/tazobactam -Sensitive | Piperacillin/tazobactam -Sensitive | Piperacillin/tazobactam -Resistant | Piperacillin/tazobactam -Sensitive |
